The values that follow come from patent publication US20030069271A1, “Quinolone compounds for use in treating viral infections” (priority 1999, published 2003).

Each structure is given as a SMILES string.

One assay has as its system HIV. Nature of the assay: Anti-HIV activity in MT4 cells (method of Averett, J. Virol. Methods 1989). It counts as cell-based. The following applies: Human immunodeficiency virus 1, read-out: Activity Range (IC50). The method, then:
The compounds of the present invention were tested for anti-HIV activity in MT4 cells according to the method described by Averett, D. R., J. Virol.
On to `CCCc1c(OC2CCCCC2)c2cc(Cl)ccc2[nH]c1=O` [Example 1, 6-Chloro-4-(cyclohexyloxy)-3-propyl-2(1H)-quinolinone], for which the IC50 lay within 5 to 100 nM. Consider `CCCc1c(OCC2CC2)c2cc(Cl)ccc2[nH]c1=O` [Example 3, 6-Chloro-4-(cyclopropylmethoxy)-3-propyl-2(1H)-quinolinone], for which the IC50 lay in the range of 100 to 500 nM.

Turning to `CCCc1c(OCC2CCCCC2)c2cc(Cl)ccc2[nH]c1=O` [Example 5, 6-Chloro-4(cyclohexylmethoxy)-3-propyl-2(1H)-quinolinone], the IC50 is 500 to 2000 nM. For the compound `CCCc1c(OCC2OCCO2)c2cc(Cl)ccc2[nH]c1=O` [Example 6, 6-Chloro-4-(1,3-dioxolan-2-ylmethoxy)-3-propyl-2(1H)-quinolinone], the IC50 lay within 500 to 2000 nM. On the same count and under the same terms, the value for `CC(C)c1c(OC2CCCCC2)c2cc(Cl)ccc2[nH]c1=O` [Example 9, 6-Chloro-4-(cyclohexyloxy)-3-isopropyl-2(1H)-quinolinone] was 5 to 100 nM.

Take `CCCc1c(OC2CCCC2)c2cc(C)ccc2[nH]c1=O` [Example 10, 4-Cyclopentyloxy-6-methyl-3-propyl-2(1H)-quinolinone]: the IC50 was in the range of 500 to 2000 nM.

Consider `CCCc1c(OC2CCCCC2)c2cc(Cl)ccc2[nH]c1=S` [Example 20, 6-Chloro-4-(cyclohexyloxy)-3-propyl-2(1H)-quinolinethione], for which the concentration for half-maximal inhibition (IC50) lay within 5 to 100 nM. Regarding `CCCc1c([S+]([O-])C2CCCCC2)c2cc(Cl)ccc2[nH]c1=O` (centres unmarked) [Example 24, 6-Chloro-4-(cyclohexylsulfinyl)-3-propyl-2(1H)-quinolinone], the IC50 was in the range of 100 to 500 nM. As to `CCCc1c(OC#CC2CC2)c2cc(Cl)ccc2[nH]c1=O` [Example 35, 6-Chloro-4-[(2-cyclopropylethynyl)oxy]-3-propyl-2(1H)-quinolinone], the IC50 was in the range of 5 to 100 nM. In the case of `CC(C)c1c(OC#CC2CC2)c2cc(F)ccc2[nH]c1=O` [Example 36, 4-[(2-Cyclopropylethynyl)oxy]-6-fluoro-3-(isopropyl)-2(1H)-quinolinone], the IC50 fell in the range of 5 to 100 nM.

As to `CCCc1c(OC#CC2CC2)c2cc(F)ccc2[nH]c1=O` [Example 37, 4-[(2-Cyclopropylethynyl)oxy]-6-fluoro-3-propyl-2(1H)-quinolinone], the IC50 is 5 to 100 nM. Consider `CCc1c(OC#CC2CC2)c2cc(F)ccc2[nH]c1=O` [Example 45, 4-[(2-Cyclopropylethynyl)oxy]-3-ethyl-6-fluoro-2(1H)-quinolinone], for which the IC50 fell in the range of 5 to 100 nM. Take `CC(C)c1c(OC#CC2CC2)c2cc(Cl)ccc2[nH]c1=O` [Example 46, 6-Chloro-4-[(2-Cyclopropylethynyl)oxy]-3-isopropyl-2(1H)-quinolinone]: the 50% inhibitory concentration (IC50) was in the range of 5 to 100 nM.

Still in this assay, the particulars now being: read-out: Activity Range (IC50).
Consider `CC(C)Cc1c(OC#CC2CC2)c2cc(F)ccc2[nH]c1=O` [Example 47, 4-[(2-Cyclopropylethynyl)oxy]-6-fluoro-3-isobutyl-2(1,H)-quinolinone], for which the IC50 was 5 to 100 nM.
